According to patent publication US20240309043A1, “THERAPEUTICALLY ACTIVE STEROIDAL DERIVATIVES” (Organon R&D Finland Ltd., priority 2017, published 2024):

Legend:
Type in all cases: biochemical
[1] = target: T1, recombinant human 17β-HSD2 (Homo sapiens, UniProt P37059); experiment: Inhibition of recombinant human 17β-HSD2; conditions: inhibitor 1 μM; 50 nM estradiol, 1 mM NADH, 30 min RT
T1 construct: made in house; host or cells: Sd9 (Sf9) insect cells, baculovirus (Bac to Bac Expression System)
T1 sequence (P37059 1-387): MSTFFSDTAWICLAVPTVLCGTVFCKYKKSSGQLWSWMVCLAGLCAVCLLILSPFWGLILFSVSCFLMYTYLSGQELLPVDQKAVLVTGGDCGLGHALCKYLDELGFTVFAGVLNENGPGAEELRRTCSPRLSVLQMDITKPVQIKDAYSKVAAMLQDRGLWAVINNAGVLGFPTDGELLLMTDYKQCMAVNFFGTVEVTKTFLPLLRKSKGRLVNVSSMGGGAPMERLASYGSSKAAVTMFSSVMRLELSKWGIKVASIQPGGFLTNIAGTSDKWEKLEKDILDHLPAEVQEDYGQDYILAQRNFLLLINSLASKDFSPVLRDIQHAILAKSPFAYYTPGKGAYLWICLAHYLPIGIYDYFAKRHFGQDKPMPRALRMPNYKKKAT
Outline: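 Sf9 baculovirus-expressed enzyme membrane extract (4 μg/ml) incubated 30 min at RT in 20 mM KH2PO4 pH 8.5 with 50 nM estradiol (³H-tracer) and 1 mM NADH, inhibitor at 1 μM or 0.1 μM, 1% DMSO. TCA-stopped; estradiol-to-estrone conversion by radio-HPLC, % inhibition = 100 − % conversion.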

[2] = tested on: HSD1 enzyme that is expressed in rabbit placenta tissue; experiment: Inhibition of E1 to E2 conversion in rabbit placenta tissue homogenate; conditions: for Rabbit placenta inhibition % @100 nM: inhibitor 100 nM, 30 nM estrone, 30 min
[3] = target: T2, recombinant human 17β-HSD1 (Homo sapiens, UniProt P14061); experiment: Inhibition of recombinant human 17β-HSD1; conditions: inhibitor 100 nM; 30 nM estrone, 1 mM NADPH, 30 min RT
T2 construct: made in house; host or cells: Sd9 (Sf9) insect cells, baculovirus (Bac to Bac Expression System)
T2 sequence (P14061 1-328): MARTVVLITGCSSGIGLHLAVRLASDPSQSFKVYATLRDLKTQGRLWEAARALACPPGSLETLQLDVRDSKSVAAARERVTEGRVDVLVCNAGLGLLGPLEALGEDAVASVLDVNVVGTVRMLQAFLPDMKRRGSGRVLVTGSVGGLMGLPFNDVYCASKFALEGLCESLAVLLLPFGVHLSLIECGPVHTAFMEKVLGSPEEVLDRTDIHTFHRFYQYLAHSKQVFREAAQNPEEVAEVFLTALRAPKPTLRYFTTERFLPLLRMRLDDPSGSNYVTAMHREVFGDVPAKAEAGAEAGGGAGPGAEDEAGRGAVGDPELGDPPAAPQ
Outline: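 Microsomes from Sf9 cells expressing human 17β-HSD1 (1 μg/ml) were incubated for 30 min at RT in 20 mM KH2PO4 pH 7.4 with 30 nM ³H-estrone, 1 mM NADPH and inhibitor at 1 μM or 0.1 μM (1% DMSO). Estrone-to-estradiol conversion was measured by radio-HPLC after TCA stop, and % inhibition was taken as 100 − % conversion.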

Row | Structure (SMILES) | inhibition at 1 µM [1] [%] | Rabbit placenta inhibition % @100 nM [2] [%] | inhibition at 0.1 µM [3] [%] | Rabbit placenta inhibition % @1000 nM ([2]; inhibitor 1000 nM) [% @] | HSD2 inhibition % @1 μM [1] [%] | HSD1 inhibition % @100 nM [3] [%]
1 | C[C@]12CCC3c4cccc(F)c4CCC3C1[C@H](CCC(=O)Nc1cccc(F)n1)C/C2=N\O (stereo partly drawn) [Compound 144, 3-((13S,15R,E)-4-fluoro-17-(hydroxyimino)-13-methyl-7,8,9,11,12,13,14,15,16,17-decahydro-6H-cyclopenta[a]phenanthren-15-yl)-N-(6-fluoropyridin-2-yl)propanamide] | 10 | 24 | 74 |  |  | 
2 | C[C@]12CCC3c4ccc(Cl)cc4CCC3C1[C@H](CCC(=O)Nc1ncc(F)cc1F)C/C2=N\O (stereo partly drawn) [Compound 164, 3-((13S,15R,E)-3-chloro-17-(hydroxyimino)-13-methyl-7,8,9,11,12,13,14,15,16,17-decahydro-6H-cyclopenta[a]phenanthren-15-yl)-N-(3,5-difluoropyridin-2-yl)propanamide] | 11 | 5 | 40 |  |  | 
3 | CN1CCN(c2ccc(NC(=O)CC[C@@H]3C/C(=N\O)[C@@]4(C)CCC5c6cccc(F)c6CCC5C34)nc2)CC1 (stereo partly drawn) [Compound 116, 3-((13S,15R,E)-4-fluoro-17-(hydroxyimino)-13-methyl-7,8,9,11,12,13,14,15,16,17-decahydro-6H-cyclopenta[a]phenanthren-15-yl)-N-(5-(4-methylpiperazin-1-yl)pyridin-2-yl)propanamide] | 26 | 76 | 85 |  |  | 
4 | C[C@]12CCC3c4ccc(F)cc4CCC3C1[C@H](CCC(=O)Nc1ncccc1F)C/C2=N\O (stereo partly drawn) [Compound 150a, 3-((13S,15R,E)-3-fluoro-17-(hydroxyimino)-13-methyl-7,8,9,11,12,13,14,15,16,17-decahydro-6H-cyclopenta[a]phenanthren-15-yl)-N-(3-fluoropyridin-2-yl)propanamide] | 0 | 10 | 74 |  |  | 
5 | COc1ccc(NC(=O)CC[C@@H]2C/C(=N\O)[C@@]3(C)CCC4c5ccc(Cl)cc5CCC4C23)nn1 (stereo partly drawn) [Compound 50, 3-((13S,15R,E)-3-chloro-17-(hydroxyimino)-13-methyl-7,8,9,11,12,13,14,15,16,17-decahydro-6H-cyclopenta[a]phenanthren-15-yl)-N-(6-methoxypyridazin-3-yl)propanamide] | -2 | 42 | 37 |  |  | 
6 | CCN(CC)C(=O)CC[C@@H]1C/C(=N\O)[C@@]2(C)CCC3c4cccc(F)c4CCC3C12 (stereo partly drawn) [Compound 24, N,N-diethyl-3-((13S,15R,E)-4-fluoro-17-(hydroxyimino)-13-methyl-7,8,9,11,12,13,14,15,16,17-decahydro-6H-cyclopenta[a]phenanthren-15-yl)propanamide] | 12 | 18 | 85 |  |  | 
7 | C[C@]12CCC3c4ccccc4CCC3C1[C@H](CCC(=O)Nc1ccccn1)C/C2=N\O (stereo partly drawn) [Compound 104, 3-((13S,15R,E)-17-(hydroxyimino)-13-methyl-7,8,9,11,12,13,14,15,16,17-decahydro-6H-cyclopenta[a]phenanthren-15-yl)-N-(pyridin-2-yl)propanamide] | -13 | 9 | 64 |  |  | 
8 | COc1ccnc(NC(=O)CC[C@@H]2C/C(=N\O)[C@@]3(C)CCC4c5cccc(F)c5CCC4C23)c1 (stereo partly drawn) [Compound 132, 3-((13S,15R,E)-4-fluoro-17-(hydroxyimino)-13-methyl-7,8,9,11,12,13,14,15,16,17-decahydro-6H-cyclopenta[a]phenanthren-15-yl)-N-(4-methoxypyridin-2-yl)propanamide] | 6 | 27 | 87 |  |  | 
9 | C[C@]12CCC3c4cccc(F)c4CCC3C1[C@H](CCC(=O)Nc1ncc(F)cc1F)C/C2=N\O (stereo partly drawn) [Compound 146, N-(3,5-difluoropyridin-2-yl)-3-((13S,15R,E)-4-fluoro-17-(hydroxyimino)-13-methyl-7,8,9,11,12,13,14,15,16,17-decahydro-6H-cyclopenta[a]phenanthren-15-yl)propanamide] | 8 |  | 92 | 63 |  | 
10 | C[C@]12CCC3c4ccccc4CCC3C1[C@H](CCC(=O)Nc1ncc(F)cc1F)C/C2=N\O (stereo partly drawn) [Compound 166, N-(3,5-difluoropyridin-2-yl)-3-((13S,15R,E)-17-(hydroxyimino)-13-methyl-7,8,9,11,12,13,14,15,16,17-decahydro-6H-cyclopenta[a]phenanthren-15-yl)propanamide] | 7 | 3 | 56 |  |  | 
11 | Cc1cc(NC(=O)CC[C@@H]2C/C(=N\O)[C@@]3(C)CCC4c5ccc(F)cc5CCC4C23)no1 (stereo partly drawn) [Compound 134, 3-((13S,15R,E)-3-fluoro-17-(hydroxyimino)-13-methyl-7,8,9,11,12,13,14,15,16,17-decahydro-6H-cyclopenta[a]phenanthren-15-yl)-N-(5-methylisoxazol-3-yl)propanamide] | -3 | 46 | 75 |  |  | 
12 | C[C@]12CCC3c4ccc(Cl)cc4CCC3C1[C@H](CCC(=O)Nc1cc(F)ccn1)C/C2=N\O (stereo partly drawn) [Compound 156, 3-((13S,15R,E)-3-chloro-17-(hydroxyimino)-13-methyl-7,8,9,11,12,13,14,15,16,17-decahydro-6H-cyclopenta[a]phenanthren-15-yl)-N-(4-fluoropyridin-2-yl)propanamide] | 10 | 3 | 47 |  |  | 
13 | CN(C)C(=O)c1ccc(NC(=O)CC[C@@H]2C/C(=N\O)[C@@]3(C)CCC4c5cccc(F)c5CCC4C23)nc1 (stereo partly drawn) [Compound 176, 6-(3-((13S,15R,E)-4-fluoro-17-(hydroxyimino)-13-methyl-7,8,9,11,12,13,14,15,16,17-decahydro-6H-cyclopenta[a]phenanthren-15-yl)propanamido)-N,N-dimethylnicotinamide] | 5 | 34 | 87 |  |  | 
14 | C[C@]12CCC3c4ccc(Cl)cc4CCC3C1[C@H](CCC(=O)Nc1ncccc1F)C/C2=N\O (stereo partly drawn) [Compound 162, 3-((13S,15R,E)-3-chloro-17-(hydroxyimino)-13-methyl-7,8,9,11,12,13,14,15,16,17-decahydro-6H-cyclopenta[a]phenanthren-15-yl)-N-(3-fluoropyridin-2-yl)propanamide] |  | 7 |  |  | 10 | 44
15 | COc1ccc(NC(=O)CC[C@@H]2C/C(=N\O)[C@@]3(C)CCC4c5ccc(Cl)cc5CCC4C23)nc1 (stereo partly drawn) [Compound 66, 3-((13S,15R,E)-3-chloro-17-(hydroxyimino)-13-methyl-7,8,9,11,12,13,14,15,16,17-decahydro-6H-cyclopenta[a]phenanthren-15-yl)-N-(5-methoxypyridin-2-yl)propanamide] | 23 | 14 | 72 |  |  | 
16 | C[C@]12CCC3c4cccc(F)c4CCC3C1[C@H](CCC(=O)Nc1ncccc1F)C/C2=N\O (stereo partly drawn) [Compound 142, 3-((13S,15R,E)-4-fluoro-17-(hydroxyimino)-13-methyl-7,8,9,11,12,13,14,15,16,17-decahydro-6H-cyclopenta[a]phenanthren-15-yl)-N-(3-fluoropyridin-2-yl)propanamide] | -1 | 34 | 93 |  |  | 
17 | C[C@]12CCC3c4ccc(Cl)cc4CCC3C1[C@H](CCC(=O)Nc1cccnn1)C/C2=N\O (stereo partly drawn) [Compound 44, 3-((13S,15R,E)-3-chloro-17-(hydroxyimino)-13-methyl-7,8,9,11,12,13,14,15,16,17-decahydro-6H-cyclopenta[a]phenanthren-15-yl)-N-(pyridazine-3-yl)propanamide] | 2 | 11 | 20 |  |  | 
